Data as given in patent US20140033367A1 (priority 2010, published 2014).

Legend:
[1] = test system: protoplasts from BGL-1 leaves; experiment: Protoplast culture with hormones or hormone conjugates, BGL-1 protoplasts; assay type: cell-based, Nicotiana tabacum; settings: for Division Efficiency / Plating Efficiency: BGL-1 protoplasts, hormone concentration in mg L^−1
Description: (§1) To evaluate the effects of hormones or hormone conjugates on protoplast division, six hormones or conjugate combinations (Table IV) were tested in the protoplast culture.
(§2) The protocol of the protoplast isolation was modified from the method of Rao and Prakash (1995). Leaves from BGL-1 and UT were cut into small pieces and placed on the surface of the enzyme solution with the lower surface down. Incubation was carried out in the dark at a temperature of 25° C.±1° C. for 8 h to release the protoplasts. The enzymatic cocktail contained 2% (w/v) cellulase Onozuka R-10, 0.5% (w/v) macerozyme R-10, 0.2% (w/v) dextran potassium sulfate, 5 mm CaCl2.2H2O, and 0.7 m mannitol, pH 5.8. After removing undigested materials and digested debris by filtration through a […] steel mesh, the enzymatic mixture was centrifuged at 1,000 rpm for 10 min. The protoplasts were resuspended in 5 mL of washing medium, and the process was repeated three times. Protoplasts were cultured at a density of 2×10^5 mL^−1 in 5-cm petri dishes in 3 mL of culture medium (Rao and Prakash, 1995) supplemented with different hormone or conjugate hormone regimes (Table IV). The cultures were kept at 25° C. in the dark. After 7 d, fresh medium was added to each petri dish, and the addition of medium was repeated on the 11th d of culture. […] After the development of microcalli visible to the naked eye, the cultures were transferred to light.

[2] = test system: protoplasts from UT leaves; experiment: Protoplast culture with hormones or hormone conjugates, UT protoplasts; assay type: cell-based, Nicotiana tabacum; settings: for Division Efficiency / Plating Efficiency: hormone concentration in mg L^−1
Description: as §1, §2

## Zeatin-O-glucoside [Zeatin-O-glucoside (1.0)]
[1]
  Division Efficiency: 7.5 ± 1.2%
  Plating Efficiency: 3.7 ± 0.3%
[1]; exogenously supplied zeatin-O-glucoside
  increase of cell division efficiency of BGL-1 protoplasts compared with UT protoplasts: 670%
[2]
  Division Efficiency: 0%
  Plating Efficiency: 0%
[2]; zeatin-O-glucoside only
  protoplast division and cell colony formation: did not divide and form cell colonies

## C/C(=C\CNc1ncnc2[nH]cnc12)CO [Zeatin (1.0), Zeatin]
[1]
  Division Efficiency: 10.6 ± 0.8%
  Plating Efficiency: 6.2 ± 0.4%
[2]
  Division Efficiency: 6.8 ± 0.9%
  Plating Efficiency: 4.6 ± 0.3%

## Naphthylacetic acid [Naphthylacetic acid (3.0)]
[1]
  Division Efficiency: 9.1 ± 1.8%
  Plating Efficiency: 4.3 ± 0.5%
[2]
  Division Efficiency: 4.8 ± 0.7%
  Plating Efficiency: 3.3 ± 0.2%
